This note sets out measurements from patent publication EP0427799B1, “METHOD AND COMPOUNDS FOR AICA RIBOSIDE DELIVERY AND FOR LOWERING BLOOD GLUCOSE” (GENSIA, INC., priority 1989, dated 1990).

In series [1] the test system is ischemic heart tissue. In words: Adenosine, AICA riboside and ZMP levels in ischemic heart tissue. The series is classed as in vivo, rats. Particulars: ischemic rat heart tissue. On the procedure: Prodrug compounds of the present invention and AICA riboside were tested for their activity in enhancing the production of adenosine and increasing production of AICA riboside from ZMP in ischemic heart tissue in rats.
Samples of heart tissue after ischemia were analyzed for nucleoside and nucleotide levels. Samples were measured for adenosine, AICA riboside and ZMP concentrations by HPLC.

Series [2] can be described thus: in vivo. Also on record: species or system dogs. Particulars: dog. On the procedure: The bioavailability of AICA riboside after oral administration of either AICA riboside or one of the AICA riboside prodrugs of the present invention was evaluated in dogs. Plasma concentrations of AICA riboside and intact prodrug were measured using HPLC. (See Dixon, R., et al., Res. Commun. Chem. Path. Pharm. 65:405-408 (1989)). Bioavailability of AICA riboside was evaluated in terms of the time required to reach maximum plasma concentration (Tmax), the maximum concentration achieved (Cmax) and the area under the plasma concentration-time curve (AUC) from time zero to the last measurable plasma concentration. Absolute bioavailability (F%) was calculated by dividing the AUC for AICA riboside following oral administration of the prodrug (or AICA riboside itself) by the AUC following intravenous administration of an equivalent amount of AICA riboside (100% bioavailability).

The test system of series [3] is plasma glucose. The experiment in a line: Plasma glucose levels in non-fasted rats. The format is in vivo, rats (Sprague Dawley). Particulars: 750 mg/Kg, 1 hour after administration. On the procedure:
This hypoglycemic effect may contribute to the anti-ischemic properties of the molecule. Ribose is known to lower blood glucose in several animal species, including man, in relatively high doses (on the order of about 1000 mg/kg) by an unknown mechanism, possibly by inhibition of phosphoglucomutase. Accordingly, in theory, AICA riboside could cause hypoglycemia at extremely high doses ([…]) due to its ability to deliver ribose phosphate to cells. Other means of increasing intracellular ribose such as treatment with ribose itself or other nucleosides and prodrugs and analogs of them which can be metabolized to yield ribose-1-phosphate (which is converted ribose-5-phosphate) or ribose-5-phosphate may also lower blood sugar. […] At higher doses of AICA riboside, hypoglycemic seizures and death were induced in rabbits and mice. We have found rats to also be sensitive to the hypoglycemic effects of AICA riboside. Initial studies were performed using non-fasted rats (Sprague Dawley) and mice (Swiss-Webster). […] In non-fasted mice the decrease of glucose levels at this dose was greater, On the order of 30-50%. In both cases the hypoglycemia was statistically significant at the p <.01 level. […] In fasted mice, AICA riboside is potent in lowering blood glucose. (See e.g., Figure 6). In fasted mice AICA riboside may cause seizures at doses of 500 mg/Kg and above. […]

In series [4] the test system is plasma glucose. In words: Plasma glucose levels in non-fasted and fasted mice. The series is classed as in vivo, mice (Swiss-Webster). Conditions: for reduced glucose levels: fasted mice (16 hours). The protocol: Ribose is known to lower blood glucose in several animal species, including man, in relatively high doses (on the order of about 1000 mg/kg) by an unknown mechanism, possibly by inhibition of phosphoglucomutase. […] Initial studies were performed using non-fasted rats (Sprague Dawley) and mice (Swiss-Webster).
Male mice (Swiss-Webster) were injected IP with the indicated treatment. […] Ribose and AICA riboside were formulated in saline. Glucose levels were measured on plasma (heparinized blood centrifuged at 10,000 X g for ten minutes). Glucose levels were measured one hour after AICA riboside administration.

The test system of series [5] is liver glycogen. In words: Effect on liver glycogen in mice. Particulars: 750 mg/Kg. The series is classed as in vivo. On the procedure:
(See Figures 9 and 10A to 10D). The glucose lowering effects of AICA riboside are related temporally to the generation and maintenance of liver ZMP levels in rats. (See Figures 11A and 11B).
Swiss Webster mice were treated with saline (as a control) or 750 mg/kg of AICA riboside administered intraperitoneally, six animals per group. The mice were sacrificed one hour post-administration The livers were removed and extracted. Liver glycogen was determined by the method of Dubois, et al., Anal. Chem. 28:350-356 (1956). Glucose was measured by the hexokinase method (See Example K).

Series [6] has as its system hippocampal CA-1 cells. The experiment in a line: Gerbil model of 5 minutes global brain ischemia followed by reperfusion. The series is classed as in vivo. Conditions: ICV and IP administration. An excerpt: (§1) The claimed prodrugs, by delivering AICA riboside should provide similar efficacy. […] Both intracerebroventricular (ICV) and IP administration of AICA riboside was effective in the gerbil model In addition to the gerbil, two different rat models of focal ischemia were also used to evaluate AICA-riboside. One model employed partial reperfusion and the second total reperfusion.

The test system of series [7] is infarct size. In words: Rat models of focal brain ischemia (partial and total reperfusion). Particulars: 800 mg/kg IP. The format is in vivo.
Text: as §1

For series [8], the system named is triglycerides. In words: Plasma triglyceride levels in diabetic rats, chronic treatment. The format is in vivo. Conditions: streptozotocin-induced diabetes in rats. The protocol:
Rats were made diabetic by treatment with streptozocin (50 mg/kg IV) and then treated with either saline or AICA riboside (500 mg/kg, twice a day) for 22 days. Plasma triglyceride levels were analyzed 18 hours after the last injection of AICA riboside using the Sigma Procedure #334 Assay Kit (coupled assay employing lipase, glycerokinase, pyruvate kinase and lactate dehydrogenase) which measures decreases in OD₃₄₀ over time (NADH disappearance).

In series [9] the test system is lactate and pyruvate. The experiment in a line: Blood lactate and pyruvate in rats. The series is classed as in vivo. The protocol:
AICA riboside (100, 250 or 500 mg/kg) or saline (as a control) was administered intraperitoneally to rats. Sixty minutes after AICA riboside administration, the rats were sacrificed by cervical dislocation. Blood glucose was determined spectrophotometrically measuring O.D. at 340 nm by the hexokinase method using the glucose SR Reagent (Medical Analysis Systems, Inc.) Blood lactate and pyruvate were determined spectrophotometrically measuring O.D. at 340 nm using lactate dehydrogenase in the presence of excess NAD or NADH, respectively.

SMILES strings stand for the structures. Bounds are passed on as bounds.

For the compound `NC(=O)c1ncn([C@@H]2O[C@H](CO)[C@@H](O)[C@H]2O)c1N` [AICA riboside, 1-β-D-ribofuranosyl-5-aminoimidazole-4-carboxamide], the “Tissue Concentration Adenosine” value in series [1] (Prodrug A at dose equimolar to AICA riboside) stood at 409 ± 60 nmol/g. Moreover, the “Tissue Concentration AICA Riboside” value in series [1] (equimolar doses) turned out to be 774 ± 73 nmol/g. In series [2] (iv), this compound had an AUC(0-t) of 8300 ng·h/mL and an F of 100%. Moreover, in series [2] (po), the AUC(0-t) came out at 900 ng·h/mL, the concentration peaked (Cmax) at 1100 ng/mL, the Tmax worked out at 45 min and the bioavailability amounted to 11%. For the same compound, the “Decreases in plasma glucose levels” value in series [3] is reported as 30-40%. The “doses that may cause seizures” value in [4] (fasted mice) was at least 500 mg/kg. The “duration of reduced plasma glucose levels” value in series [4] (fasted mice (2 hours), 500 mg/Kg) fell in the range of 2 to 3 h. In series [4] (250 mg/Kg), this compound had a reduced glucose levels of 50%. This compound had a reduced glucose levels in series [4] (500 and 750 mg/Kg) of 60%. Besides, in series [4] (non-fasted mice, 750 mg/Kg), the “decrease of glucose levels” value was 30-50%. Further, the “increase of liver glycogen” value in series [5] is reported as 55%. For the same compound, the “degeneration of hippocampal CA-1 cells” value in [6] was “prevented the degeneration of hippocampal CA-1 cells”. In series [7], the infarct size result is on record as “highly significant reduction in infarct size”. In addition, the serum triglycerides entry in series [8] was “lowers serum triglycerides”. Further, in series [9], the “lactate to pyruvate ratio” value is on record as “not changed”; the “liver glycogen, serum lactate and pyruvate” value is “elevation of liver glycogen and of serum lactate and pyruvate”.

A word on the AUC(0-t): it is the area under the concentration-time curve up to a stated or last time point. Lower therefore signals low exposure. As a reminder, the Cmax is the peak of the concentration-time curve. As usually defined, the Tmax is the time from dosing to the highest level. Usually bioavailability stands for the share of a dose that reaches the circulation, judged against a reference dose that is usually intravenous. Higher therefore signals much systemic uptake.
